Reference: publication PMC6862250, “Lipophilicity Determination of Quaternary (Fluoro)Quinolones by Chromatographic and Theoretical Approaches” (International Journal of Molecular Sciences, 2019)

Tests used:
Format in all cases: physicochemical
[1] = RP-TLC lipophilicity, silica gel C18, methanol-water; details: for C 0: RP-TLC silica gel C18, C0 = −RM^0/b; for PC1: RP-TLC silica gel C18, first principal component of RM values, contains 86.92% of information; for mRM: RP-TLC silica gel C18, mean value of RM; for R M ^0: RP-TLC silica gel C18, methanol-water 40 to 70% (v/v), intercept of Soczewiński–Wachtmeister equation; for b: RP-TLC silica gel C18, slope of Soczewiński–Wachtmeister equation
Description: (§1) The ready-to-use TLC glass plates covered by octadecyl(C18)- and octyl(C8)-modified TLC silica layers were purchased from Merck (Darmstadt, Germany). Stock solutions (5 µL) of the analytes were spotted manually on the plates with the use of a micropipette from Brand (Wertheim, Germany). The mobile phases were prepared by mixing appropriate volumes of pure organic solvents and water (in step gradient by 10% (v/v)), in the following proportions: (a) methanol–water ranging from 30 to 70% (v/v), in the case of C8-bonded silica gel stationary phase; and (b) methanol–water ranging from 40 to 70% (v/v), in the case of C18-bonded silica gel stationary phase.
(§2) Before analysis, the chromatographic chamber (Twin Trough Chambers from CAMAG Philadelphia, USA) was saturated for 20 min. All TLC experiments were performed at room temperature (22 ± 2 °C). Chromatograms were developed using the ascending technique to a distance of 8 cm. The investigated substances were visualized under UV light at λ = 366 nm by CAMAG UV Lamp 4 and the Viewing Box 4 (Philadelphia, USA). […] The obtained retardation factors (RF) were collected in the Supplementary data sheets. The retention parameter, RM, was calculated for each compound according to the Bate-Smith and Westall formula: (7) RM=log(1/RF−1) and listed in Table S2. Next, the Soczewiński–Wachtmeister’s equation: RM = RM^0 + bC(8) was used in order to determine the basic lipophilic RP-TLC parameter RM^0 as well as commonly used hydrophobic constants m. Soczewiński–Wachtmeister’s equation presented a linear relationship between concentration of the organic solvent in mobile phase (C) and RM value. Moreover, mean value of RM was used for lipophilicity assessments.
(§3) Furthermore, C0 RP-TLC lipophilicity parameter, introduced by Bieganowska, has been calculated according to the formula:(9) C0=−RM^0/b.
(§4) The C0 parameter corresponds to the parameter φ0, previously proposed for the HPLC. This parameter relates to the concentration of the organic component in the mobile phase for which the distribution of the analyzed substance between the mobile and stationary phase is equal (1:1).
(§5) Also, the principal component analysis (PCA) was applied in order to extract information regarding the lipophilicity of solutes and formulate them as the first principal component (PC1). Calculation data matrixes included RM values of solutes for each modifier concentration in the mobile phase.

[2] = RP-TLC lipophilicity, silica gel C8, methanol-water; details: for C 0: RP-TLC silica gel C8, C0 = −RM^0/b; for PC1: RP-TLC silica gel C8, first principal component of RM values, contains 83.57% of information; for mRM: RP-TLC silica gel C8, mean value of RM; for R M ^0: RP-TLC silica gel C8, methanol-water 30 to 70% (v/v), intercept of Soczewiński–Wachtmeister equation; for b: RP-TLC silica gel C8, slope of Soczewiński–Wachtmeister equation
Description: as §1, §2, §3, §4, §5

[3] = MEKC lipophilicity (SDS micelles, pH 7.4); details: 50 mM SDS, HEPES/TRIS buffer pH 7.4, 25 °C
Description: All MEKC experiments were carried out with a P/ACE MDQ plus system (Sciex, Framingham, MA, USA) equipped with photodiode array detector (PDA) and controlled by 32 Karat software (version 10.2). The uncoated fused silica capillaries (50 µm i.d., Polymicro Technologies, West Yorkshire, UK) of 60 cm total length and 50.2 cm effective length were used. Prior to analysis, the capillary was rinsed with 0.1 M NaOH for 30 min, ultrapure water for 10 min, and background electrolyte (BGE) for 30 min. After each analysis, the capillary was conditioned with BGE for 2 min. The applied pressure for all rinsing operations was 345 kPa. The analytes were dissolved in BGE at concentration of 100 µg/mL with addition of quinine (micelles marker). As electroosmotic flow (EOF) marker, DMSO was used. The samples were hydrodynamically injected at 35 kPa for 5 s. The separations were performed by applying voltage of 20 kV with positive polarity and constant temperatures at 25 ± 0.1 °C. The BGE consisted of aqueous solution of 50 mM SDS and 120 mM HEPES /100 mM TRIS buffer of pH 7.4. The BGE was prepared each working day by dilution of stock solution. Detection was carried out at 200 and 280 nm with 8 Hz probing frequency. The logarithm of retention factor logk was calculated according to the equation introduced by Terabe and co-workers:(10) logkMEKC=log(tR−tEOF/tEOF(1−tR/tMC)) The established logk parameters are summarized in Table 2.

| C 0 [1] | PC1 [1] | mRM [1] | R M ^0 [1] | b [1] | C 0 [2] | PC1 [2] | mRM [2] | R M ^0 [2] | b [2] | logk [3] | logk ([3]; listed as pipemidic acid) | logk ([3]; listed as enoxacin) | Structure (SMILES) |
| --- | --- | --- | --- | --- | --- | --- | --- | --- | --- | --- | --- | --- | --- |
| 1.06 | −1.63 | 1.31 | 2.69 | −2.55 | 0.95 | −4.29 | 1.26 | 2.68 | −2.83 | 0.101 |  |  | COc1c(N2CCNC(C)C2)c(F)cc2c(=O)c(C(=O)O)cn(C3CC3)c12 (stereo not shown) [Compound 21, reference compound] |
| 1.37 | −3.86 | 1.62 | 2.70 | −1.98 | 1.23 | −5.38 | 1.45 | 2.45 | −2.00 | 0.156 |  | 0.1564 | CCn1cc(C(=O)O)c(=O)c2cc(F)c(N3CCNCC3)nc21 [Compound 23, enoxacin, reference compound] |

More lines, now with the values behind:

| Structure (SMILES) | C 0 [1] | PC1 [1] | mRM [1] | R M ^0 [1] | b [1] | C 0 [2] | PC1 [2] | mRM [2] | R M ^0 [2] | b [2] | logk [3] | logk ([3]; listed as pipemidic acid) | logk ([3]; listed as enoxacin) |
| --- | --- | --- | --- | --- | --- | --- | --- | --- | --- | --- | --- | --- | --- |
| COc1c(N2CC3CCC[N+]4(CN5C(=N4)C(C(=O)O)=Cc4ccccc45)C3C2)c(F)cc2c(=O)c(C(=O)O)cn(C3CC3)c12.[Cl-] (stereo not shown) [Compound 15] | 0.84 | −1.12 | 1.24 | 3.56 | −4.21 | 0.91 | −3.52 | 1.19 | 2.63 | −2.88 | −0.250 |  |  |
| CCn1cc(C(=O)O)c(=O)c2cc(F)c(N3CCNC(C)C3)c(F)c21 (stereo not shown) [Compound 17, reference compound] | 1.15 | −1.08 | 1.22 | 2.33 | −2.03 | 1.34 | −4.09 | 1.29 | 2.06 | −1.54 | 0.077 |  |  |
| CCn1cc(C(=O)O)c(=O)c2cc(F)c(N3CCNCC3)cc21 [Compound 18, reference compound] | 1.24 | −2.34 | 1.40 | 2.54 | −2.06 | 1.27 | −5.56 | 1.47 | 2.43 | −1.90 | 0.103 |  |  |
| CCn1cc(C(=O)O)c(=O)c2cnc(N3CCNCC3)nc21 [Compound 19, pipemidic acid, reference compound] | 1.35 | −1.24 | 1.24 | 2.39 | −1.78 | 1.65 | −3.91 | 1.30 | 1.87 | −1.13 | −0.170 | −0.1697 |  |
| C[C@@H]1CN(c2c(F)c(N)c3c(=O)c(C(=O)O)cn(C4CC4)c3c2F)C[C@H](C)N1 [Compound 20, reference compound] | 0.99 | −1.40 | 1.28 | 2.85 | −2.88 | 1.07 | −3.81 | 1.21 | 2.27 | −2.13 | 0.116 |  |  |
